Data as given in patent US11241374B2, “Compositions and methods for treating skin conditions using light and glucosamine hydrochloride” (Johnson & Johnson Consumer Inc., priority 2018, dated 2022).
“Also recorded” adds a separate entry of the source.

System: Human dermal fibroblasts
Test: Hyaluronic acid (HA) secretion by human dermal fibroblasts, Hyaluronan ELISA of culture media
Format: cell-based
Conditions: for Synergy of active with red and/or near infrared light in hyaluronic acid production: combination of active and light versus light alone; for Fold Change versus treatment with light alone: net HA
Experimental: Human dermal fibroblasts are maintained in flask in growth medium consisting of Dulbeccos' Modified Eagle Medium (DMEM) plus 10% fetal bovine serum, 50 units/ml penicillin and 50 μg/ml streptomycin. Cells are seeded at 10,000 cells per well in a 96 well plate in phenol-red-free Dulbeccos' Modified Eagle Medium (DMEM) plus 2% fetal bovine serum, 50 units/ml penicillin and 50 μg/ml streptomycin for 24 hours before the treatments. Glucosamine HCl or other actives were dissolved in 1×PBS at 10% stock and added into the medium at various concentrations for 48 hours. Culture media is collected at 48 hours post-treatment, and measured for HA (Hyaluronic acid) secretion using Hyaluronan ELISA kit (Echelon, cat. #K-1200) following the manufacturer protocol. To assess activity, the colorimetric chance is measured at 405 nm. The net HA secretion of each tested treatment is calculated by the amount of the HA secretion from each respective individual treatment minus the amount of the HA secretion from the untreated treatment. Then, the fold increase provided by the combination of the treatments by light+active is calculated as the fold change in net HA secreted from the application of the combined light plus active treatment divided by the net HA secreted from the treatment by light alone. […]

[1] = 0.02% active alone in cell media, no light, 48 hours
[2] = Red (633 nm) + NIR (830 nm) light 0.3 J/cm^2 each + 0.02% active
[3] = Red + NIR light 0.3 J/cm^2 each + 0.02% active
[4] = Red + NIR light 0.3 J/cm^2 each + 0.2% active
[5] = Red + NIR light 3 J/cm^2 each + 0.02% active
[6] = Red + NIR light 3 J/cm^2 each + 0.2% active

Row | Compound | HA concentrations [1] [ng/mL] | Change in HA concentration over Untreated (0.02% active alone, no light) [ng/mL] | HA concentrations [2] [ng/mL] | Change in HA concentration over Untreated [3] | Fold Change versus treatment with light alone [3] | Synergy of active with red and/or near infrared light in hyaluronic acid production | other results
1 | Cl.N[C@H]1C(O)O[C@H](CO)[C@@H](O)[C@@H]1O (some centres unmarked) [Glucosamine HCl, glucosamine hydrochloride] | 543 | -8 | 2489 | +1938 ng/ml | 2.25 | – | HA concentrations (0.2% active alone in cell media, no light, 48 hours): 999 ng/mL; Change in HA concentration over Untreated (0.2% active alone, no light): +448 ng/ml; HA concentrations (Red (633 nm) + NIR (830 nm) light 0.3 J/cm^2 each + 0.2% active): 2260 ng/mL; HA concentrations (Red (633 nm) + NIR (830 nm) light 3 J/cm^2 each + 0.02% active): 4379 ng/mL; HA concentrations (Red (633 nm) + NIR (830 nm) light 3 J/cm^2 each + 0.2% active): 3873 ng/mL; Change in HA concentration over Untreated [4]: +1709 ng/ml; Change in HA concentration over Untreated [5]: +3828 ng/ml; Change in HA concentration over Untreated [6]: +3322 ng/ml; Synergy of active with red and/or near infrared light in hyaluronic acid production (listed as glucosamine HCl, hydrochloride): synergistically increased the hyaluronic acid secretion; Synergy of active with red and/or near infrared light in hyaluronic acid production (listed as glucosamine hydrochloride, hydrochloride): synergistically increases hyaluronic acid production; Fold Change versus treatment with light alone [4]: 1.98; Fold Change versus treatment with light alone [5]: 2.99; Fold Change versus treatment with light alone [6]: 2.60
2 | N[C@H]1C(O)O[C@H](CO)[C@@H](O)[C@@H]1O.O=P(O)(O)O (some centres unmarked) [Glucosamine phosphate, reference compound] | 689 | -51 | 1037 | 297 ng/mL | 0.36 | – | Synergy of active with red and/or near infrared light in hyaluronic acid production (listed as glucosamine phosphate, phosphate): not observed; Synergy of active with red and/or near infrared light in hyaluronic acid production (phosphate): No synergy was observed
3 | CC(=O)N[C@H]1C(O)O[C@H](CO)[C@@H](O)[C@@H]1O (some centres unmarked) [N-acetyl Glucosamine, N-acetyl glucosamine, reference compound] | 735 | -125 | 1878 | 1018 ng/mL | 1.1 | No synergy was observed; also recorded: not observed | –
4 | N[C@H]1C(O)O[C@H](CO)[C@@H](O)[C@@H]1O (some centres unmarked) [glucosamine] | – | – | – | – | – | not observed | –
